Measured values reported in US20250332173A1, “COMPOUNDS AND METHODS FOR MODULATING NUCLEIC ACID SPLICING” (REMIX THERAPEUTICS INC., priority 2021, published 2025).
Where two headings read alike, the source gives them in different places.

Assays:
HTT mRNA = assay: RT-qPCR splicing assay, HTT canonical junction (CJ) and alternative junction (AJ) mRNA; type: cell-based, human; conditions: Homo sapiens; for AC50: increase in HTT alternative junction (AJ) mRNA, read-out: HTT AJ AC50
Method in brief: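 A673 or K562 cells were treated for 24 h at 37 °C with an 11-point 3-fold compound dilution series (top final concentration 10 uM, DMSO ≤0.25%). After lysis, one-step TaqMan RT-qPCR quantified junction transcripts, normalized to PPIA for A673 or to GAPDH/GUSB for K562.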

MYB mRNA = assay: RT-qPCR splicing assay, MYB canonical junction (CJ) and alternative junction (AJ) mRNA; type: cell-based, human; conditions: Homo sapiens; for AC50: increase in MYB alternative junction (AJ) mRNA, read-out: MYB AJ AC50
Procedure: (§1) The expression of a target mRNA was measured by detecting the formation of an exon-exon junction in the canonical transcript (CJ). A compound mediated exon-inclusion event was detected by observing an increase in formation of a new junction with an alternative exon (AJ). Real-time qPCR assays were used to detect these splicing switches and interrogate the potency of various compounds towards different target genes. A high-throughput real time quantitative PCR (RT-qPCR) assay was developed to measure these two isoforms of the mRNA (CJ and AJ) for exemplary genes, such as HTT, SMN2, and MYB, together with a control housekeeping gene, GAPDH or GUSB or PPIA, used for normalization. Briefly, the A673 or K562 cell line was treated with various compounds described herein (e.g., compounds of Formula (I)). After treatment, the levels of the HTT, MYB, or SMN2 mRNA targets were determined from each sample of cell lysate by cDNA synthesis followed by qPCR.
• Cells-to-CT 1-step kit: ThermoFisher A25602, Cells-to-CT lysis reagent: ThermoFisher 4391851C, TaqMan™ Fast Virus 1-Step Master Mix: ThermoFisher 4444436 • GAPDH: VIC-PL, ThermoFisher 4326317E (Assay: Hs99999905_m1)—used for K562/suspension cell lines • GUSB: VIC-PL, ThermoFisher 4326320E (Assay: Hs99999908_m1)—used for K562/suspension cell lines • PPIA: VIC-PL, ThermoFisher 4326316E (Assay: Hs99999904_m1)—used for A673/adherent cell lines
(§2) The A673 cell line was cultured in DMEM with 10% FBS. Cells were diluted with full growth media and plated in a 96-well plate (15,000 cells in 100 ul media per well). The plate was incubated at 37° C. with 5% CO2 for 24 hours to allow cells to adhere. An 11-point 3-fold serial dilution of the compounds was made in DMSO then diluted in media in an intermediate plate. Compounds were transferred from the intermediate plate to the cell plate with the top dose at a final concentration of 10 uM in the well. Final DMSO concentration was kept at or below 0.25%. The cell plate was returned to the incubator at 37° C. with 5% CO2 for an additional 24 hours.
(§3) The K562 cell line was cultured in IMDM with 10% FBS. For K562, cells were diluted with full growth media and plated in either a 96-well plate (50,000 cells in 50 uL media per well) or a 384-well plate (8,000-40,000 cells in 45 uL media per well). An 11-point 3-fold serial dilution of the compounds were made in DMSO then diluted in media in an intermediate plate. Compound was transferred from the intermediate plate to the cell plate with the top dose at a final concentration of 10 uM in the well. Final DMSO concentration was kept at or below 0.25%. Final volume was 100 uL for 96-well plate and 50 uL for 384-well plate. The cell plate was then placed in an incubator at 37° C. with 5% CO2 for 24 hours.
(§4) The cells were then gently washed with 50 uL-100 uL cold PBS before proceeding to addition of lysis buffer. 30 uL-50 uL of room temperature lysis buffer with DNAse I (and optionally RNAsin) was added to each well. Cells were shaken/mixed thoroughly at room temperature for 5-10 minutes for lysis to take place and then 3 uL-5 uL of room temperature stop solution was added and wells were shaken/mixed again. After 2-5 minutes, the cell lysate plate was transferred to ice for RT-qPCR reaction setup. The lysates could also be frozen at −80° C. for later use.
(§5) In some cases, a direct lysis buffer was used. An appropriate volume of 3× lysis buffer (10 mM Tris, 150 mM NaCl, 1.5%-2.5% Igepal and 0.1-1 U/uL RNAsin, pH 7.4) was directly added to either K562 or A673 cells in media and mixed by pipetting 3 times. The plates were then incubated at room temperature with shaking/rocking for 20-50 minutes to allow for lysis to take place. After this time, the cell lysate plate was transferred to ice to set up for the RT-qPCR reactions. The lysates could also be frozen at −80° C. for later use.

SMN2 mRNA = assay: RT-qPCR splicing assay, SMN2 canonical junction (CJ) mRNA; type: cell-based, human; conditions: Homo sapiens; canonical junction qPCR panel, Table 5; read-out: SMN2 (decrease in CJ mRNA levels, IC50)
Procedure: as §1, §2, §3, §4, §5
To set up 10 uL RT-qPCR reactions, cell lysates were transferred to 384-well qPCR plates containing the master mix according to the table below. The plates were sealed, gently vortexed, and spun down before the run. The volumes were adjusted accordingly in some instances where the reaction was carried in 20 uL. The table below summarizes the components of the RT-qPCR reactions:
The RT-qPCR reaction was performed using a QuantStudio (ThermoFisher) under the following fast cycling conditions.

Target C = assay: RT-qPCR splicing assay panel, Target C canonical junction (CJ) mRNA; type: cell-based, human; conditions: Homo sapiens; canonical junction qPCR panel, Table 5; read-out: Target C (decrease in CJ mRNA levels, IC50)
Method in brief: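 Read-out is canonical exon-exon junction mRNA quantified by RT-qPCR against a GAPDH, GUSB or PPIA control. Cells (A673 or K562) received compound for 24 h, top final dose 10 uM in an 11-point 3-fold series.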

[1] = tested on: K562 (human chronic myelogenous leukemia) cells; assay: Cell Titer Glo 2.0 cell viability assay; type: cell-based; conditions: Homo sapiens, K562, 72 h, K562 cells, 72 hours, Cell Titer Glo 2.0; read-out: K562 GI50
[2] = decrease in HTT canonical junction (CJ) mRNA, RT-qPCR, read-out: HTT CJ IC50
[3] = canonical junction qPCR panel, Table 5, read-out: HTT (decrease in CJ mRNA levels, IC50)
[4] = canonical junction qPCR panel, Table 5, read-out: MYB (decrease in CJ mRNA levels, IC50)
[5] = decrease in MYB canonical junction (CJ) mRNA, RT-qPCR, read-out: MYB CJ IC50

Row | SMILES | IC50 (HTT mRNA; [2]) | AC50 (HTT mRNA; RT-qPCR) | IC50 (HTT mRNA; [3]) | IC50 (MYB mRNA; [4]) | IC50 (MYB mRNA; [5]) | AC50 (MYB mRNA; RT-qPCR) | IC50 (SMN2 mRNA) | IC50 (Target C) | GI50 [1]
1 | C[C@@H]1C[C@H](n2ccc3nc(-c4cc5cn(C)nc5cc4O)ncc3c2=O)CCN1 [Compound 1474] | 1000 to 10000 nM | 1000 to 10000 nM | 1000 to 10000 nM | 100 to 1000 nM | 1000 to 10000 nM | 100 to 1000 nM | < 100 nM | 1000 to 10000 nM | 100 to 1000 nM
2 | Cc1cn2cc(-c3ccc4c(=O)n([C@@H]5CCN[C@H](C)C5)ccc4n3)cc(F)c2n1 [Compound 1475] | > 10000 nM | 1000 to 10000 nM | 1000 to 10000 nM | 1000 to 10000 nM | 1000 to 10000 nM | 1000 to 10000 nM | 100 to 1000 nM | 1000 to 10000 nM | 1000 to 10000 nM
3 | CN[C@H]1CC[C@@H](n2ccc3nc(-c4cc5cn(C)nc5c(C)c4O)ncc3c2=O)C1 [Compound 1478, 2-(6-hydroxy-2,7-dimethyl-indazol-5-yl)-6-[(1R,3S)-3-(methylamino)cyclopentyl]pyrido[4,3-d]pyrimidin-5-one] | 1000 to 10000 nM | 1000 to 10000 nM | 1000 to 10000 nM | 100 to 1000 nM | 100 to 1000 nM | 100 to 1000 nM | < 100 nM | 1000 to 10000 nM | 100 to 1000 nM
4 | Cc1cn2cc(-c3ncc4c(=O)n([C@@H]5C[C@@H](C)N[C@@H](C)C5)ccc4n3)cc(F)c2n1 [Compound 1480, 6-[(2R,6S)-2,6-dimethyl-4-piperidyl]-2-(8-fluoro-2-methyl-imidazo[1,2-a]pyridin-6-yl)pyrido[4,3-d]pyrimidin-5-one] | 100 to 1000 nM | 100 to 1000 nM | 100 to 1000 nM | 100 to 1000 nM | 100 to 1000 nM | 100 to 1000 nM | 100 to 1000 nM | 100 to 1000 nM | 100 to 1000 nM
5 | Cn1cc2cc(-c3ccc4c(=O)n(C56CCC(N)(CC5)C6)ccc4n3)c(O)cc2n1 [Compound 1481, 6-(4-aminonorbornane-1-yl)-2-(6-hydroxy-2-methyl-indazol-5-yl)-1,6-naphthyridin-5-one] | 1000 to 10000 nM | 100 to 1000 nM | 100 to 1000 nM | < 100 nM | 100 to 1000 nM | < 100 nM | < 100 nM | 1000 to 10000 nM | < 100 nM
6 | Cc1cn2cc(-c3ncc4c(=O)n(C5C[C@H](C)N[C@@H](C)C5)ccc4n3)cc(F)c2n1 (stereo partly drawn) [Compound 1482, 6-[(2S,6S)-2,6-dimethyl-4-piperidyl]-2-(8-fluoro-2-methyl-imidazo[1,2-a]pyridin-6yl)pyrido[4,3-d]pyrimidin-5-one] | 1000 to 10000 nM | 1000 to 10000 nM | 1000 to 10000 nM | < 100 nM | 100 to 1000 nM | < 100 nM | < 100 nM | 100 to 1000 nM | < 100 nM
7 | Cc1cn2cc(-c3ncc4c(=O)n(C5C[C@@H](C)N[C@H](C)C5)ccc4n3)cc(F)c2n1 (stereo partly drawn) [Compound 1483, 6-[(2R,6R)-2,6-dimethyl-4-piperidyl]-2-(8-fluoro-2-methyl-imidazo[1,2-a]pyridin-6-yl)pyrido[4,3-d]pyrimidin-5-one] | 1000 to 10000 nM | 100 to 1000 nM | 100 to 1000 nM | 100 to 1000 nM | 1000 to 10000 nM | 100 to 1000 nM | < 100 nM | 100 to 1000 nM | 100 to 1000 nM
8 | Cc1c(O)c(-c2ccc3c(=O)n([C@H]4CC[C@H](N(C)C)CC4)ccc3n2)cc2cn(C)nc12 [Compound 1484, 6-[4-(dimethylamino)cyclohexyl]-2-(6-hydroxy-2,7-dimethyl-indazol-5-yl)-1,6-naphthyridin-5-one] | 100 to 1000 nM | < 100 nM | < 100 nM | < 100 nM | < 100 nM | < 100 nM | < 100 nM | 100 to 1000 nM | < 100 nM
9 | Cc1c(O)c(-c2ccc3c(=O)n([C@H]4CC[C@@H](N(C)C)CC4)ccc3n2)cc2cn(C)nc12 [Compound 1485, 6-[4-(dimethylamino)cyclohexyl]-2-(6-hydroxy-2,7-dimethyl-indazol-5-yl)-1,6-naphthyridin-5-one] | 100 to 1000 nM | 100 to 1000 nM | 100 to 1000 nM | 100 to 1000 nM | 100 to 1000 nM | 100 to 1000 nM | < 100 nM | 100 to 1000 nM | 100 to 1000 nM
10 | Cc1c(O)c(-c2ccc3c(=O)n(C45CCC(N)(CC4)C5)ccc3n2)cc2cn(C)nc12 [Compound 1486] | 1000 to 10000 nM | 100 to 1000 nM | 100 to 1000 nM | < 100 nM | 100 to 1000 nM | < 100 nM | < 100 nM | 1000 to 10000 nM | < 100 nM
